Test results published in paper PMC2248166, “Quantitative peptide binding motifs for 19 human and mouse MHC class I molecules derived using positional scanning combinatorial peptide libraries” (Immunome Research, 2008).

Experiments:
HLA A*6802 = HLA A*6802 (Homo sapiens, UniProt P04439, A269V/D140Y/D185E/E176V/E277Q/E87N/F33Y/G231S/I121R/I166T/I218V/L180W/L300P/L318F/N151K/P208A/P217A/Q86R/R138H/R169H/S129P/T345S/V36M); type: binding
HLA A*0201 = HLA A*0201 (Homo sapiens, UniProt P04439, D140Y/D185E/D98H/E176V/E277Q/G131W/G231S/I119V/I121R/I166T/I218V/L300P/L318F/N151K/N90K/P208A/P217A/Q86G/Q94H/R138H/R169H/T345S); settings: positional scanning combinatorial 9-mer library; normalized to 1.0 for the best residue at each position
HLA B*0702 = HLA B*0702 (Homo sapiens, UniProt P01889); type: binding; settings: positional scanning combinatorial 9-mer library; normalized to 1.0 for the best residue at each position
HLA B*1503 = HLA B*1503 (Homo sapiens, UniProt P01889, A329T/A93T/A95T/C349S/D201E/D98Y/E187L/E204Q/K202T/N87E/Q94N/R155S/R180L/S121R/S35A/V306I/V36M/Y140S/Y91S); experiment: biochemical; type: binding
HLA B*5401 = HLA B*5401 (Homo sapiens, UniProt P01889, A329T/C349S/D138N/D201E/E176V/E187T/E204Q/E69G/I76V/K202T/L119W/R155S/R180L/S121T/S35A/S48A/V127L/V306I/V36M/Y140L); type: binding
H-2 D^d = H-2 D^d (Mus musculus, UniProt P01900); type: binding
H-2 D^d, sequence (P01900 whole entry, looked up): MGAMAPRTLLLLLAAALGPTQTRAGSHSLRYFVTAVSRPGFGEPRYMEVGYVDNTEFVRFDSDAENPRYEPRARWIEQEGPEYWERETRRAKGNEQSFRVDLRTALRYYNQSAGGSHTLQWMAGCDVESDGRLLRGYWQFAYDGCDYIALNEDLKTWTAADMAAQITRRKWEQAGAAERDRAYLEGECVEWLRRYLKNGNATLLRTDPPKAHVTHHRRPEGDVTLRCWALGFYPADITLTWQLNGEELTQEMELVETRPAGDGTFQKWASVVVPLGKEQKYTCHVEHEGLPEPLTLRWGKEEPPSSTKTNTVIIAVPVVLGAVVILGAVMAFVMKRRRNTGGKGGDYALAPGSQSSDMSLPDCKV

H-2 K^k = H-2 K^k (Mus musculus, UniProt P04223); type: binding
H-2 K^k, sequence (P01887 21-119): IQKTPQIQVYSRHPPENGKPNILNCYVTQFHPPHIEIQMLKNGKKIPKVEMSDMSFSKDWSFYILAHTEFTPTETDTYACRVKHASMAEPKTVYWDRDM
H-2 K^k, sequence (P04223 22-369): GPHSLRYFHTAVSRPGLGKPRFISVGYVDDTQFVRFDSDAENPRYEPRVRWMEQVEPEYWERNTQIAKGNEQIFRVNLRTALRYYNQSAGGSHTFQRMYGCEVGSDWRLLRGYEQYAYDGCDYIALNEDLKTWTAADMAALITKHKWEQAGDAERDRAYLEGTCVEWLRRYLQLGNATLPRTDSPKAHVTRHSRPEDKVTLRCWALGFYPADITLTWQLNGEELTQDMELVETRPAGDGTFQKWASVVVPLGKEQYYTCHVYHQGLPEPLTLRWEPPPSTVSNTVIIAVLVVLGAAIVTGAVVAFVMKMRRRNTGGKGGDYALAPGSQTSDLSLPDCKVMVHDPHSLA

HLA B*5301 = HLA B*5301 (Homo sapiens, UniProt P01889, A329T/A93T/A95T/C349S/D201E/D98Y/E176V/E187L/E204Q/E69T/G107R/I218V/K202T/L105A/L119I/N104I/Q94N/R106L/R155S/R180L/S101N/S121R/S35A/S48A/T118I/V127L/V306I/V36M/Y140S/Y91F); type: binding
HLA B*5802 = HLA B*5802 (Homo sapiens, UniProt P01889, A329T/C349S/D201E/D98Y/E176V/E187L/E204Q/E69T/G107R/I218V/I90N/K202T/L105A/N104I/N87E/Q89R/Q94S/R106L/R155S/R180L/R86G/S101N/S121W/S35A/S48A/V127L/V306I/V36M/Y140S/Y91M); type: binding
HLA B*1501 = HLA B*1501 (Homo sapiens, UniProt P01889, A329T/A93T/A95T/C349S/D201E/D98Y/E187L/E204Q/E69M/E70A/K202T/N87E/Q94N/R155S/R180W/S121R/S35A/S48A/V306I/V36M/Y140S/Y91S); experiment: biochemical; type: binding
HLA B*2705 = HLA B*2705 (Homo sapiens, UniProt P01889, D138H/D201E/E176V/E204Q/G107R/H137Y/K202T/N104T/N87E/Q56L/Q94K/R106L/R155S/R180L/S101D/S121N/S48T/Y140D/Y33H/Y91C); type: binding; settings: positional scanning combinatorial 9-mer library; normalized to 1.0 for the best residue at each position
HLA B*0801 = HLA B*0801 (Homo sapiens, UniProt P01889, A93T/A95T/D138N/E176V/E187T/K202T/Q94N/R180D/S35A/V36M/Y33D/Y91F); experiment: biochemical; type: binding
HLA B*5801 = HLA B*5801 (Homo sapiens, UniProt P01889, A329T/C349S/D201E/D98Y/E176V/E187L/E204Q/E69T/G107R/I218V/I90N/K202T/L105A/L119I/N104I/N87E/Q89R/Q94S/R106L/R155S/R180L/R86G/S101N/S121R/S35A/S48A/T118I/V127L/V306I/V36M/Y140S/Y91M); type: binding
HLA A*3201 = HLA A*3201 (Homo sapiens, UniProt P04439, A270S/D101S/D185E/E176V/E277Q/F133L/G103R/G107R/G231S/H175R/I121M/I218V/I322F/K168Q/L105A/L300P/L318F/M331R/P208A/P217A/Q94H/R106L/R138Q/S129P/T104I/T323A/T345S/V100E/V321M/V358M); experiment: biochemical; type: binding
HLA B*5101 = HLA B*5101 (Homo sapiens, UniProt P01889, A329T/A93T/A95T/C349S/D138N/D201E/D98Y/E187L/E204Q/E69T/G107R/I218V/K202T/L105A/L119W/N104I/Q94N/R106L/R155S/R180L/S101N/S121T/S35A/S48A/V306I/V36M/Y195H/Y91F); type: binding
HLA A*3001 = HLA A*3001 (Homo sapiens, UniProt P04439, D140H/D185E/E176W/F33S/G80R/H175R/K168Q/R138E/R41S); experiment: biochemical; type: binding
HLA B*3501 = HLA B*3501 (Homo sapiens, UniProt P01889, A329T/A93T/A95T/C349S/D201E/D98Y/E176V/E187L/E204Q/E69T/I218V/K202T/L119I/Q94N/R155S/R180L/S121R/S35A/S48A/T118I/V127L/V306I/V36M/Y140S/Y91F); type: binding
H-2 D^b = H-2 D^b (Mus musculus, UniProt P01899); type: binding
H-2 D^b, sequence (P01887 21-119): as the sequence (P01887 21-119) above
H-2 D^b, sequence (P01899 25-362): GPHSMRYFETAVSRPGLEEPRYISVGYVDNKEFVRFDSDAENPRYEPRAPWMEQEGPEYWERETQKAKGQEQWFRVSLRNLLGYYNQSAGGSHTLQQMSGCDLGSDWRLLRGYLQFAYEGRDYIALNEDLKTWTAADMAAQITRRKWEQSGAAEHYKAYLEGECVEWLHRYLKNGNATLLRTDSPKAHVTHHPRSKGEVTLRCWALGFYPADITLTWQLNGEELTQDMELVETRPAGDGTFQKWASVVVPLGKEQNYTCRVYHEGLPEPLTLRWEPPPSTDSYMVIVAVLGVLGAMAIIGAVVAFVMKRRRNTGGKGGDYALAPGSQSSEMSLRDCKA

| Sequence | Normalized average relative binding affinity (ARB), HLA A*6802 (HLA A*6802) | Normalized average relative binding affinity (ARB), HLA A*0201 (HLA A*0201) | Normalized average relative binding affinity (ARB), HLA B*0702 (HLA B*0702) | Normalized average relative binding affinity (ARB), HLA B*1503 (HLA B*1503) | Normalized average relative binding affinity (ARB), HLA B*5401 (HLA B*5401) | Normalized average relative binding affinity (ARB), H-2 Dd (H-2 D^d) | Normalized average relative binding affinity (ARB), H-2 Kk (H-2 K^k) | Normalized average relative binding affinity (ARB), HLA B*5301 (HLA B*5301) | Normalized average relative binding affinity (ARB), HLA B*5802 (HLA B*5802) | Normalized average relative binding affinity (ARB), HLA B*1501 (HLA B*1501) | Normalized average relative binding affinity (ARB), HLA B*2705 (HLA B*2705) | Normalized average relative binding affinity (ARB), HLA B*0801 (HLA B*0801) | Normalized average relative binding affinity (ARB), HLA B*5801 (HLA B*5801) | Normalized average relative binding affinity (ARB), HLA A*3201 (HLA A*3201) | Normalized average relative binding affinity (ARB), HLA B*5101 (HLA B*5101) | Normalized average relative binding affinity (ARB), HLA A*3001 (HLA A*3001) | Normalized average relative binding affinity (ARB), HLA B*3501 (HLA B*3501) | Normalized average relative binding affinity (ARB), H-2 Db (H-2 D^b) |
| --- | --- | --- | --- | --- | --- | --- | --- | --- | --- | --- | --- | --- | --- | --- | --- | --- | --- | --- |
| XXXCXXXXX [3064.0062] | 0.13 | 0.20 | 0.18 | 0.34 | 0.22 | 0.56 | 0.37 | 0.14 | 0.52 | 0.39 | 0.25 | 0.41 | 0.23 | 0.12 | 0.26 | 0.31 | 0.089 | 1.0 |
| XXXDXXXXX [3064.0063] | 0.31 | 0.91 | 0.16 | 0.13 | 0.28 | 0.30 | 0.46 | 0.26 | 0.069 | 0.30 | 0.26 | 0.072 | 0.17 | 0.14 | 0.74 | 0.22 | 0.18 | 0.072 |
| XXYXXXXXX [3064.0060] | 0.26 | 0.88 | 0.061 | 0.44 | 0.11 | 0.0028 | 0.52 | 0.078 | 0.72 | 0.60 | 0.40 | 0.13 | 0.34 | 1.0 | 0.38 | 0.016 | 0.29 | 0.24 |
| XYXXXXXXX [3064.0040] | 0.017 | 0.0078 | 0.0050 | 0.017 | 0.0039 | 0.013 | 0.0099 | 0.0053 | 0.030 | 0.028 | 0.0026 | 0.066 | 0.029 | 0.032 | 0.053 | 0.46 | 0.012 | 0.071 |
| YXXXXXXXX [3064.0020] | 0.24 | 0.11 | 0.25 | 0.34 | 0.12 | 0.41 | 0.63 | 0.36 | 0.46 | 0.33 | 0.85 | 0.24 | 0.20 | 0.12 | 1.0 | 0.064 | 0.19 | 0.57 |
